A short description of series [1]: Cell toxicity assay (XTT cell proliferation). Format: cell-based. How it is done:
(§1) After 1 day the medium was changed to medium without streptomycin and different concentrations of the tested compounds were added. After 48 hours a cell proliferation assay (XTT based colorimetric assay, Biological Industries) was performed, using the 5 hours incubation protocol, according to the manufacturer's instructions. Optical density (OD) was read using an Elisa plate reader. Cell viability was calculated as the ratio between the number of living cells in cultures grown in the presence of the tested compounds, versus the corresponding cell cultures which were grown without the tested compounds.
A general note: Tetrazolium dyes change colour on reduction, which living cells bring about.

Series [2] concerns UGA C stop codon (p2LUC plasmid) in COS-7 cells. Description: Ex vivo suppression, p2LUC dual luciferase reporter plasmid in COS-7 cells. It is filed as cell-based, monkey. The note with it: 24 hours incubation. How it is done:
Recent studies on enhanced production of functional proteins from nonsense codon-containing genes by promoter-activating agents support this presumption. To test this possibility, Compound 3 along with paromomycin and gentamicin, were evaluated for the UGA C stop codon read-through activity in cultured cells using a dual luciferase reporter system.
Suppression of nonsense mutations by Compounds 1-9 was tested ex vivo using a dual luciferase reporter plasmid. The p2LUC plasmid harboring the UGAC mutation was transfected to COS-7 cells with Lipofectamine 2000 (Invitrogen) and addition of tested compounds was performed after 15 hours. Luciferase activity was determined after 24 hours of incubation, using the Dual Luciferase Reporter Assay System (Promega) and stop codon readthrough was calculated as described previously.
In general terms: Reporter assays use an easily measured gene product as a stand-in for the process of interest.

The subject of series [3] is R3X nonsense mutation of the PCDH15 gene in COS-7 cells. As to the kind of experiment: Ex vivo readthrough assay, p2luc-R3X dual luciferase reporter plasmid in COS-7 cells. It is filed as cell-based, monkey. How it is done:
For the, suppression of nonsense mutations by novel compounds was tested ex vivo using a dual luciferase reporter plasmid ex vivo readthrough assay. To generate the p2luc plasmid harboring the R3X nonsense mutation of the PCDH15 gene, the following oligonucleotides: 5′-[…]-3′ (SEQ ID NO: 21) and 5′-[…]-3′ (SEQ ID NO: 22) were annealed to each other and inserted into to polylinker sequence of the p2luc vector. The reporter plasmid p2luc-R3X was transfected to cos-7 cells with Lipofectamine 2000 (Invitrogen) and addition of tested compounds was performed 5 hours post transfection. Luciferase activity was determined after 24 hours of incubation, using the Dual Luciferase Reporter Assay System (Promega) and stop codon readthrough was calculated as described previously.

A short description of series [4]: Cell toxicity of Compound 37. Format: cell-based.
A further series is described as follows: Acute toxicity in mice. It is filed as in vivo.
The next series has as its system TGA stop codon. As to the kind of experiment: Preliminary tests for in vitro readthrough activity of the TGA stop codon. It is filed as biochemical.
The subject of series [5] is human cytoplasmic A site olygonucleotide model duplexes. Description: UV melting of A site oligonucleotide model duplexes. It is filed as binding. The source says: FIG. 7 presents the UV melting profiles observed for the human cytoplasmic A site olygonucleotide model duplexes in the absence of any drug (“No Drug” curve in FIG. 7) and in complex with ribostamycin (“Ribostamycin” curve in FIG. 7), Compound 3 (“NB30” curve in FIG. 7) and Compound 37 (“NB54” curve in FIG. 7) complexes at a drug/duplex ratio of 5:1;

For series [6] the following is noted: available toxicity data on aminoglycosides; unit inferred; cited from earlier work.
The next series has as its system COS-7 (monkey kidney). Description: Cell toxicity assay (XTT cell proliferation). Format: cell-based. The note with it: 48 hours. Here is the method:
as §1

Series [7] deals with HEK-293 (human embryonic kidney). As to the kind of experiment: Cell toxicity assay (XTT cell proliferation). Format: cell-based. The note with it: 48 hours. How it is done:
as §1

A further series has as its system MDCK (canine kidney). Description: Cell toxicity assay (XTT cell proliferation). It is filed as cell-based. The note with it: 48 hours. Here is the method: as §1

The term LD50 denotes the dose expected to kill half of the subjects tested.

In brackets after ≈: the same amount, converted by molar mass. Read-outs that look alike come from different tables or passages of the source.

As to `NC[C@H]1O[C@@H](O[C@@H]2[C@@H](O)[C@H](N)C[C@H](N)[C@H]2O[C@H]2O[C@H](CO)[C@@H](O)[C@H](O)[C@H]2N)[C@H](O)[C@@H]1O` [Compound 3], the CC50 at 48 h in series [1] (dog, MDCK cells, 48 hours, read-out: LC50 MDCK) was 7530 ± 1210 µg/mL (≈ 16.6 mM); in [1] (human, HEK-293 cells, 48 hours, read-out: LC50 HEK293), 4820 ± 920 µg/mL (≈ 10.6 mM); in [1] (monkey, COS-7 cells, 48 hours, read-out: LC50 COS-7) it was 7030 ± 1850 µg/mL (≈ 15.5 mM). Moreover, in series [2], the “ex-vivo suppression of nonsense mutation (read-through activity), FIG. 4” value is “superior to that of paromomycin and gentamicin at all the tested concentrations”.
Regarding `NCC[C@H](O)C(=O)N[C@@H]1CC(N)[C@@H](O[C@H]2OC(CO)[C@@H](O)C(O)C2N)C(O[C@@H]2O[C@H](CN)C(O)C2O)C1O` (some centres unmarked) [Compound 37], the “maximum suppression level of the R3X nonsense mutation” value in series [3] stood at 5.25%. Further, the “cell toxicity in comparison to paromomycin and gentamicin” value in [4] was “significantly reduced”. In “Acute toxicity in mice”, the “acute toxicity in mice in comparison to paromomycin and gentamicin” value is on record as “significantly reduced”. Moreover, in the series on TGA stop codon, the “in vitro readthrough activity of the TGA stop codon vs Compound 3 and paromomycin” value is “significantly higher stop codon read-through activity”. For the same compound, in series [5], the “affinity to the cytoplasmic A site versus Compound 3” value is given as “greater affinity”.
Regarding `NC[C@@H]1O[C@H](O[C@H]2[C@@H](O)[C@H](O[C@@H]3[C@@H](O)[C@H](N)C[C@H](N)[C@H]3O[C@H]3O[C@H](CO)[C@@H](O)[C@H](O)[C@H]3N)O[C@@H]2CO)[C@H](N)[C@@H](O)[C@@H]1O` [paromomycin, reference compound], the values for the CC50 at 48 h in series [1] (dog), in series [1] (human) and in series [1] (monkey) were 1000 ± 60 µg/mL (≈ 1.62 mM), 770 ± 140 µg/mL (≈ 1.25 mM) and 900 ± 100 µg/mL (≈ 1.46 mM), respectively. Also, the 50% lethal dose (LD50) in series [6] was 160 mg/kg.
For the compound gentamicin [reference compound], the “LC50 COS-7” value in the series on COS-7 (monkey kidney) was 490 ± 60 µg/mL. In addition, the “LC50 HEK293” value in series [7] was found to be 700 ± 80 µg/mL. In addition, the “LC50 MDCK” value in the series on MDCK (canine kidney) is 510 ± 70 µg/mL. For the same compound, in series [2], the “ex-vivo suppression of nonsense mutation (read-through activity), FIG. 4” value was “less efficient than either paromomycin or Compound 3”.
